Legend:
Format in all cases: functional
[1] = tested on: Parabacteroides goldsteinii; experiment: Antimicrobial activity against Parabacteroides goldsteinii by Wadsworth agar dilution method in presence of beta-lactamase inhibitor Sulbactam
Bacteroides ovatus = experiment: Antimicrobial activity against Bacteroides ovatus by Wadsworth agar dilution method in presence of beta-lactamase inhibitor Sulbactam
Bacteroides nordii = experiment: Antimicrobial activity against Bacteroides nordii by Wadsworth agar dilution method in presence of beta-lactamase inhibitor Sulbactam
Fusobacterium nucleatum = experiment: Antimicrobial activity against Fusobacterium nucleatum by Wadsworth agar dilution method in presence of beta-lactamase inhibitor Sulbactam
Fusobacterium varium = experiment: Antimicrobial activity against Fusobacterium varium by Wadsworth agar dilution method in presence of beta-lactamase inhibitor Sulbactam
Porphyromonas = experiment: Antimicrobial activity against Porphyromonas sp. by Wadsworth agar dilution method in presence of beta-lactamase inhibitor Sulbactam
Prevotella bivia = experiment: Antimicrobial activity against Prevotella bivia by Wadsworth agar dilution method in presence of beta-lactamase inhibitor Sulbactam
Prevotella intermedia = experiment: Antimicrobial activity against Prevotella intermedia by Wadsworth agar dilution method in presence of beta-lactamase inhibitor Sulbactam
[2] = tested on: Prevotella melaninogenica; experiment: Antimicrobial activity against Prevotella melaninogenica by Wadsworth agar dilution method in presence of beta-lactamase inhibitor Sulbactam
Flavonifractor plautii = experiment: Antimicrobial activity against Clostridium orbiscindens by Wadsworth agar dilution method in presence of beta-lactamase inhibitor Sulbactam
Clostridium perfringens = experiment: Antimicrobial activity against Clostridium perfringens by Wadsworth agar dilution method in presence of beta-lactamase inhibitor Sulbactam
Clostridium cadaveris = experiment: Antimicrobial activity against Clostridium cadaveris by Wadsworth agar dilution method in presence of beta-lactamase inhibitor Sulbactam
Clostridium disporicum = experiment: Antimicrobial activity against Clostridium disporicum by Wadsworth agar dilution method in presence of beta-lactamase inhibitor Sulbactam
Thomasclavelia ramosa = experiment: Antimicrobial activity against Clostridium ramosum by Wadsworth agar dilution method in presence of beta-lactamase inhibitor Sulbactam
Clostridium scindens = experiment: Antimicrobial activity against Clostridium scindens by Wadsworth agar dilution method in presence of beta-lactamase inhibitor Sulbactam
Clostridium spiroforme = experiment: Antimicrobial activity against Clostridium spiroforme by Wadsworth agar dilution method in presence of beta-lactamase inhibitor Sulbactam; settings: Thomasclavelia spiroformis
Clostridium sporogenes = experiment: Antimicrobial activity against Clostridium sporogenes by Wadsworth agar dilution method in presence of beta-lactamase inhibitor Sulbactam
Clostridium subterminale = experiment: Antimicrobial activity against Clostridium subterminale by Wadsworth agar dilution method in presence of beta-lactamase inhibitor Sulbactam
Clostridium symbiosum = experiment: Antimicrobial activity against Clostridium symbiosum by Wadsworth agar dilution method in presence of beta-lactamase inhibitor Sulbactam
Schaalia odontolytica = experiment: Antimicrobial activity against Actinomyces odontolyticus by Wadsworth agar dilution method in presence of beta-lactamase inhibitor Sulbactam
Actinomyces viscosus = experiment: Antimicrobial activity against Actinomyces viscosus by Wadsworth agar dilution method in presence of beta-lactamase inhibitor Sulbactam
Bifidobacterium bifidum = experiment: Antimicrobial activity against Bifidobacterium bifidum by Wadsworth agar dilution method in presence of beta-lactamase inhibitor Sulbactam
[3] = Antimicrobial activity against Bifidobacterium pseudocatenulatum by Wadsworth agar dilution method in presence of beta-lactamase inhibitor Sulbactam
[4] = tested on: Pseudoramibacter alactolyticus; experiment: Antimicrobial activity against Eubacterium alactolyticum by Wadsworth agar dilution method in presence of beta-lactamase inhibitor Sulbactam
Eubacterium cylindroides = experiment: Antimicrobial activity against Eubacterium cylindroides by Wadsworth agar dilution method in presence of beta-lactamase inhibitor Sulbactam; settings: Faecalitalea cylindroides
Eubacterium limosum = experiment: Antimicrobial activity against Eubacterium limosum by Wadsworth agar dilution method in presence of beta-lactamase inhibitor Sulbactam
[5] = tested on: Limosilactobacillus fermentum; experiment: Antimicrobial activity against Lactobacillus fermentum by Wadsworth agar dilution method in presence of beta-lactamase inhibitor Sulbactam
Lactobacillus jensenii = experiment: Antimicrobial activity against Lactobacillus jensenii by Wadsworth agar dilution method in presence of beta-lactamase inhibitor Sulbactam
[6] = tested on: Lactiplantibacillus plantarum; experiment: Antimicrobial activity against Lactobacillus plantarum by Wadsworth agar dilution method in presence of beta-lactamase inhibitor Sulbactam
[7] = tested on: Limosilactobacillus reuteri; experiment: Antimicrobial activity against Lactobacillus reuteri by Wadsworth agar dilution method in presence of beta-lactamase inhibitor Sulbactam
Lactobacillus sp. = experiment: Antimicrobial activity against Lactobacillus sp. by Wadsworth agar dilution method in presence of beta-lactamase inhibitor Sulbactam
[8] = tested on: Peptoniphilus asaccharolyticus; experiment: Antimicrobial activity against Peptoniphilus asaccharolyticus by Wadsworth agar dilution method in presence of beta-lactamase inhibitor Sulbactam
[9] = tested on: Peptostreptococcus anaerobius; experiment: Antimicrobial activity against Peptostreptococcus anaerobius by Wadsworth agar dilution method in presence of beta-lactamase inhibitor Sulbactam
Ruminococcus gnavus = experiment: Antimicrobial activity against Ruminococcus gnavus by Wadsworth agar dilution method in presence of beta-lactamase inhibitor Sulbactam; settings: Mediterraneibacter gnavus

Question: For `CC1(C)S[C@@H]2[C@H](NC(=O)[C@H](N)c3ccccc3)C(=O)N2[C@H]1C(=O)O` [AMPICILLIN], which MIC50 [1] is on record?
Answer: The MIC50 was 16 µg/mL.

Question: What about the MIC90 [1] of the same molecule?
Answer: The MIC90 was 32 µg/mL.

Question: What about the MIC50 (Bacteroides ovatus) of the same molecule?
Answer: The MIC50 was 8 µg/mL.

Question: What about the MIC90 (Bacteroides ovatus) of the same molecule?
Answer: Its MIC90 is 32 µg/mL.

Question: And the MIC50 (Bacteroides nordii)?
Answer: Its MIC50 is 2 µg/mL.

Question: And the MIC90 (Bacteroides nordii)?
Answer: Its MIC90 is 16 µg/mL.

Question: And the MIC50 (Fusobacterium nucleatum)?
Answer: The MIC50 was 0.25 µg/mL.

Question: And the MIC90 (Fusobacterium nucleatum)?
Answer: Its MIC90 is 0.25 µg/mL.

Question: And the MIC50 (Fusobacterium varium)?
Answer: The MIC50 was 1 µg/mL.

Question: What about the MIC90 (Fusobacterium varium) of the same molecule?
Answer: Its MIC90 is 4 µg/mL.

Question: What about the MIC (Porphyromonas) of the same molecule?
Answer: Its MIC is 0.25 µg/mL.

Question: What about the MIC50 (Porphyromonas) of the same molecule?
Answer: Its MIC50 is 0.25 µg/mL.

Question: What about the MIC90 (Porphyromonas) of the same molecule?
Answer: Its MIC90 is 0.5 µg/mL.

Question: What about the MIC50 (Prevotella bivia) of the same molecule?
Answer: Its MIC50 is 0.5 µg/mL.

Question: What about the MIC90 (Prevotella bivia) of the same molecule?
Answer: The MIC90 was 4 µg/mL.

Question: And the MIC50 (Prevotella intermedia)?
Answer: The MIC50 was 0.5 µg/mL.

Question: And the MIC90 (Prevotella intermedia)?
Answer: Its MIC90 is 4 µg/mL.

Question: What about the MIC50 [2] of the same molecule?
Answer: Its MIC50 is 0.5 µg/mL.

Question: And the MIC90 [2]?
Answer: Its MIC90 is 4 µg/mL.

Question: And the MIC (Flavonifractor plautii)?
Answer: Its MIC is 2 µg/mL.

Question: What about the MIC50 (Flavonifractor plautii) of the same molecule?
Answer: Its MIC50 is 2 µg/mL.

Question: And the MIC90 (Flavonifractor plautii)?
Answer: The MIC90 was 4 µg/mL.

Question: And the MIC50 (Clostridium perfringens)?
Answer: The MIC50 was 0.25 µg/mL.

Question: And the MIC90 (Clostridium perfringens)?
Answer: Its MIC90 is 0.25 µg/mL.

Question: And the MIC (Clostridium cadaveris)?
Answer: The MIC was 0.25 µg/mL.

Question: What about the MIC50 (Clostridium cadaveris) of the same molecule?
Answer: The MIC50 was 0.25 µg/mL.

Question: What about the MIC90 (Clostridium cadaveris) of the same molecule?
Answer: The MIC90 was 1 µg/mL.

Question: What about the MIC (Clostridium disporicum) of the same molecule?
Answer: The MIC was 0.25 µg/mL.

Question: And the MIC50 (Clostridium disporicum)?
Answer: Its MIC50 is 0.25 µg/mL.

Question: And the MIC90 (Clostridium disporicum)?
Answer: The MIC90 was 1 µg/mL.

Question: What about the MIC (Thomasclavelia ramosa) of the same molecule?
Answer: Its MIC is 0.25 µg/mL.

Question: And the MIC50 (Thomasclavelia ramosa)?
Answer: Its MIC50 is 0.25 µg/mL.

Question: And the MIC90 (Thomasclavelia ramosa)?
Answer: The MIC90 was 1 µg/mL.

Question: And the MIC (Clostridium scindens)?
Answer: The MIC was 0.25 µg/mL.

Question: What about the MIC50 (Clostridium scindens) of the same molecule?
Answer: Its MIC50 is 0.25 µg/mL.

Question: What about the MIC90 (Clostridium scindens) of the same molecule?
Answer: The MIC90 was 1 µg/mL.

Question: And the MIC (Clostridium spiroforme)?
Answer: Its MIC is 0.25 µg/mL.

Question: What about the MIC50 (Clostridium spiroforme) of the same molecule?
Answer: The MIC50 was 0.25 µg/mL.

Question: And the MIC90 (Clostridium spiroforme)?
Answer: The MIC90 was 1 µg/mL.

Question: What about the MIC (Clostridium sporogenes) of the same molecule?
Answer: Its MIC is 0.25 µg/mL.

Question: What about the MIC50 (Clostridium sporogenes) of the same molecule?
Answer: The MIC50 was 0.25 µg/mL.

Question: And the MIC90 (Clostridium sporogenes)?
Answer: Its MIC90 is 1 µg/mL.

Question: What about the MIC (Clostridium subterminale) of the same molecule?
Answer: Its MIC is 0.25 µg/mL.

Question: What about the MIC50 (Clostridium subterminale) of the same molecule?
Answer: Its MIC50 is 0.25 µg/mL.

Question: And the MIC90 (Clostridium subterminale)?
Answer: Its MIC90 is 1 µg/mL.

Question: What about the MIC (Clostridium symbiosum) of the same molecule?
Answer: The MIC was 0.25 µg/mL.

Question: What about the MIC50 (Clostridium symbiosum) of the same molecule?
Answer: The MIC50 was 0.25 µg/mL.

Question: And the MIC90 (Clostridium symbiosum)?
Answer: Its MIC90 is 1 µg/mL.

Question: And the MIC (Schaalia odontolytica)?
Answer: Its MIC is 0.25 µg/mL.

Question: And the MIC50 (Schaalia odontolytica)?
Answer: The MIC50 was 0.25 µg/mL.

Question: And the MIC90 (Schaalia odontolytica)?
Answer: Its MIC90 is 2 µg/mL.

Question: And the MIC (Actinomyces viscosus)?
Answer: The MIC was 0.25 µg/mL.

Question: What about the MIC50 (Actinomyces viscosus) of the same molecule?
Answer: Its MIC50 is 0.25 µg/mL.

Question: And the MIC90 (Actinomyces viscosus)?
Answer: Its MIC90 is 2 µg/mL.

Question: What about the MIC (Bifidobacterium bifidum) of the same molecule?
Answer: The MIC was 0.25 µg/mL.

Question: And the MIC50 (Bifidobacterium bifidum)?
Answer: Its MIC50 is 0.25 µg/mL.

Question: And the MIC90 (Bifidobacterium bifidum)?
Answer: Its MIC90 is 2 µg/mL.

Question: What about the MIC [3] of the same molecule?
Answer: Its MIC is 0.25 µg/mL.

Question: What about the MIC50 [3] of the same molecule?
Answer: Its MIC50 is 0.25 µg/mL.

Question: What about the MIC90 [3] of the same molecule?
Answer: The MIC90 was 2 µg/mL.

Question: And the MIC [4]?
Answer: The MIC was 0.25 µg/mL.

Question: What about the MIC50 [4] of the same molecule?
Answer: The MIC50 was 0.25 µg/mL.

Question: And the MIC90 [4]?
Answer: The MIC90 was 2 µg/mL.

Question: What about the MIC (Eubacterium cylindroides) of the same molecule?
Answer: The MIC was 0.25 µg/mL.

Question: What about the MIC50 (Eubacterium cylindroides) of the same molecule?
Answer: The MIC50 was 0.25 µg/mL.

Question: And the MIC90 (Eubacterium cylindroides)?
Answer: Its MIC90 is 2 µg/mL.

Question: What about the MIC (Eubacterium limosum) of the same molecule?
Answer: The MIC was 0.25 µg/mL.

Question: What about the MIC50 (Eubacterium limosum) of the same molecule?
Answer: Its MIC50 is 0.25 µg/mL.

Question: And the MIC90 (Eubacterium limosum)?
Answer: Its MIC90 is 2 µg/mL.

Question: And the MIC [5]?
Answer: The MIC was 0.25 µg/mL.

Question: What about the MIC50 [5] of the same molecule?
Answer: Its MIC50 is 0.25 µg/mL.

Question: And the MIC90 [5]?
Answer: The MIC90 was 2 µg/mL.

Question: And the MIC (Lactobacillus jensenii)?
Answer: The MIC was 0.25 µg/mL.

Question: And the MIC50 (Lactobacillus jensenii)?
Answer: Its MIC50 is 0.25 µg/mL.

Question: What about the MIC90 (Lactobacillus jensenii) of the same molecule?
Answer: The MIC90 was 2 µg/mL.

Question: And the MIC [6]?
Answer: The MIC was 0.25 µg/mL.

Question: What about the MIC50 [6] of the same molecule?
Answer: Its MIC50 is 0.25 µg/mL.

Question: And the MIC90 [6]?
Answer: Its MIC90 is 2 µg/mL.

Question: What about the MIC [7] of the same molecule?
Answer: Its MIC is 0.25 µg/mL.

Question: And the MIC50 [7]?
Answer: Its MIC50 is 0.25 µg/mL.

Question: And the MIC90 [7]?
Answer: Its MIC90 is 2 µg/mL.

Question: What about the MIC (Lactobacillus sp.) of the same molecule?
Answer: Its MIC is 0.25 µg/mL.

Question: And the MIC50 (Lactobacillus sp.)?
Answer: The MIC50 was 0.25 µg/mL.

Question: And the MIC90 (Lactobacillus sp.)?
Answer: The MIC90 was 2 µg/mL.

Question: What about the MIC [8] of the same molecule?
Answer: Its MIC is 0.25 µg/mL.

Question: What about the MIC50 [8] of the same molecule?
Answer: The MIC50 was 0.25 µg/mL.

Question: And the MIC90 [8]?
Answer: The MIC90 was 2 µg/mL.

Question: What about the MIC [9] of the same molecule?
Answer: Its MIC is 0.25 µg/mL.

Question: And the MIC50 [9]?
Answer: Its MIC50 is 0.25 µg/mL.

Question: What about the MIC90 [9] of the same molecule?
Answer: The MIC90 was 2 µg/mL.

Question: What about the MIC (Ruminococcus gnavus) of the same molecule?
Answer: Its MIC is 0.25 µg/mL.

Question: What about the MIC50 (Ruminococcus gnavus) of the same molecule?
Answer: The MIC50 was 0.25 µg/mL.

Question: And the MIC90 (Ruminococcus gnavus)?
Answer: Its MIC90 is 2 µg/mL.

Source: ChEMBL document CHEMBL1275577, “Study of the in vitro activities of rifaximin and comparator agents against 536 anaerobic intestinal bacteria from the perspective of potential utility in pathology involving bowel flora” (Antimicrob Agents Chemother, 2009)
